Source: US6916923B2 (Hoffmann-La Roche Inc., priority 1999, dated 2005)

Tests used:
[1] = test system: estrogen receptor negative epithelial breast carcinoma line (MDA-MB-435); assay: MDA-MB-435 cell-based antiproliferative (MTT) assay; details: Homo sapiens, MDA-MB-435, 120 h, 2000 cells per well, 5 days post addition of test compound, read-out: Antiproliferative Activity of MDA-MB435 (breast) Assay - IC50 Range
Experimental: (§1) The estrogen receptor negative epithelial breast carcinoma line (MDA-MB-435) was purchased from American Type Cell Culture Collection (ATCC; Rockville, Md.) and was grown in the medium recommended by ATCC. For analysis of the effect of the test compounds on growth of these cells, the cells were plated at 2000 cells per well in a 96-well tissue culture plate, and were incubated overnight at 37° C. with 5% CO2. The next day, the test compounds were dissolved in 100% dimethyl sulfoxide (DMSO) to yield a 10 mM stock solution. Each compound was diluted with sterile medium to 1 mM in a sufficient quantity to yield a final concentration of 120 μM. The compounds were then serially diluted in medium with 1.2% DMSO. One-fourth final volume of the diluted compounds was transferred to 96 well plates. Test compounds were assayed in duplicate. DMSO was added to a row of “control cells” such that the final concentration of DMSO in each well was 0.3%. Wells to which no cells were added served as the “blank.” Wells to which no inhibitor was added served as “no inhibitor control”. The plates were returned to the incubator, and 5 days post addition of test compound, were analyzed as described below.
(§2) 3-(4,5-Dimethylthiazole-2-yl)-2,5-diphenyl-2H-tetrazolium bromide (thiazolyl blue; MTT) was added to each well to yield a final concentration of 1 mg/mL. The plates were then incubated at 37° C. for 3 hours. The plates were centrifuged at 1000 rpm for 5 minutes prior to aspiration of the MTT-containing medium. The MTT-containing medium was then removed and 100 μL 100% ethanol was added to each well to dissolve the resulting formazan metabolite. To ensure complete dissolution, plates were shaken for 15 minutes at room temperature. Absorbencies were read in a microtiter plate reader (Molecular Dynamics) at a wavelength of 570 nm with a 650 nm reference. Percent inhibition was calculated by subtracting the absorbance of the blank (no cell) wells from all wells, then subtracting the division of the average absorbance of each test duplicate by the average of the controls from 1.00. Inhibitory concentrations (IC50) were determined from the linear regression of a plot of the logarithm of the concentration versus the percent inhibition.

[2] = biological target: T1, Recombinant active human Cyclin E/CDK2 complexes (Homo sapiens, UniProt P24941); assay: CDK2 FlashPlate Assay (inhibition of Rb phosphorylation); type: biochemical; details: Cyclin E/CDK2, Rb substrate, 33P-ATP, 25 minutes at room temperature; read-out: Inhibition of Cdk2 - IC50 Range
T1 construct: made in house; host or cells: insect cells
Experimental: To determine inhibition of CDK2 activity, purified recombinant retinoblastoma (Rb) protein was coated on 96 well FlashPlates (New England Nuclear, Boston, Mass.). Rb is a natural substrate for phosphorylation by CDK2 (Herwig and Strauss Eurr. J. Biochem., Vol. 246 (1997) pp. 581-601 and references therein). Recombinant active human Cyclin E/CDK2 complexes were partially purified from extracts of insect cells. The active Cyclin E/CDK2 was added to the Rb-coated FlashPlates along with ^33P-ATP and dilutions of test compounds. Plates were incubated for 25 minutes at room temperature with shaking, then washed and counted in the Topcount scintillation counter (Packard Instrument Co., Downers Grove, Ill.). Dilutions of test compounds were tested in duplicate in each assay. The percent inhibition of Rb phosphorylation, which is a measure of the inhibition of CDK2 activity, was determined according to the following formula: [formula] where “test compound” refers to the average counts per minute of the test duplicates, “nonspecific” refers to the average counts per minute when no Cyclin E/CDK2 was added, and “total” refers to the average counts per minute when no compound was added.

[3] = test system: colon adenocarcinoma line SW480; assay: SW480 cell-based antiproliferative (MTT) assay; details: Homo sapiens, SW480, 144 h, 1000 cells per well, 6 days post addition of test compound, read-out: Antiproliferative Activity SW480 (colon) Assay - IC50 Range
Experimental: as §1, §2
The colon adenocarcinoma line SW480 and the colon carcinoma line HCT-116 also were obtained from the ATCC and were tested according to the same protocol provided above for MDA-MB435 cell based assay with the following modifications. Cell line SW480 was plated at 1000 cells per well and analyzed at 6 days post addition of the test compound. Cell line HCT-116 was plated at 1000 cells per well and analyzed at 4 days post addition of test compound.

Row | Compound | IC50 [1] | IC50 [2] | IC50 [3]
1 | O=[N+]([O-])c1ccc2c(c1)C(c1ccccc1Cl)=Nc1c(n[nH]c1C(F)(F)F)N2 [Compound B12, 3-trifluoromethyl-5-(2-chlorophenyl)-7-nitro-pyrazolo[3,4][1,4]benzodiazepine] | 1.1 to 9.99 µM | 10 to 990 nM | –
2 | Cc1ccc(-c2[nH]nc3c2N=C(c2ccccc2Cl)c2cc([N+](=O)[O-])ccc2N3)cc1 [Compound D24] | – | 1000 to 9990 nM | –
3 | Fc1ccccc1C1=Nc2c[nH]nc2Nc2ccc(Cl)cc21 [Compound A7, 5-(2-fluorophenyl)-7-chloro-pyrazolo[3,4][1,4]benzodiazepine] | – | 1000 to 9990 nM | –
4 | O=C(c1ccc2c(c1)C(c1ccccc1F)=Nc1c[nH]nc1N2)N(CCO)CCO [Compound C3, N,N-bis-(2-hydroxyethyl)-5-(2-fluorophenyl)-pyrazolo[3,4][1,4]benzodiazepine-7-carboxamide] | – | 1000 to 9990 nM | –
5 | Cc1[nH]nc2c1N=C(c1ccccc1F)c1cc(F)ccc1N2 [Compound B26, 3-methyl-5-(2-fluorophenyl)-7-fluoro-pyrazolo[3,4][1,4]benzodiazepine] | – | 10 to 990 nM | 10 to 1000 nM
6 | Cc1[nH]nc2c1N=C(c1ccccc1F)c1cc(C(N)=O)ccc1N2 [Compound C19, 3-methyl-5-(2-fluorophenyl)-pyrazolo[3,4][1,4]benzodiazepine-7-carboxamide] | – | 10 to 990 nM | 10 to 1000 nM
7 | Cc1[nH]nc2c1N=C(c1ccccc1)c1ccccc1N2 [Compound B28, 3-methyl-5-phenyl-pyrazolo[3,4][1,4]benzodiazepine] | – | 10 to 990 nM | –
8 | COC(=O)c1ccc2c(c1)C(c1ccccc1)=Nc1c[nH]nc1N2 [Compound A18, 5-phenyl-7-carbomethoxy-pyrazolo[3,4][1,4]benzodiazepine] | – | 1000 to 9990 nM | –
9 | O=Cc1[nH]nc2c1N=C(c1ccccc1Cl)c1cc([N+](=O)[O-])ccc1N2 [Compound C13, 5-(2-chlorophenyl)-7-nitro-pyrazolo[3,4][1,4]benzodiazepine-3-carboxaldehyde] | 0.01 to 1 µM | 10 to 990 nM | –
10 | CCOC(=O)c1[nH]nc2c1N=C(c1ccccc1Cl)c1cc([N+](=O)[O-])ccc1N2 [Compound B2, 3-carboethoxy-5-(2-chlorophenyl)-7-nitro-pyrazolo[3,4][1,4]benzodiazepine] | 10 to 30 µM | 1000 to 9990 nM | –
11 | O=[N+]([O-])c1ccc2c(c1)C(c1ccccc1C(F)(F)F)=Nc1c[nH]nc1N2 [Compound A17, 5-(2-trifluoromethylphenyl)-7-nitro-pyrazolo[3,4][1,4]benzodiazepine] | – | 10 to 990 nM | –
12 | C=Cc1[nH]nc2c1N=C(c1ccccc1Cl)c1cc([N+](=O)[O-])ccc1N2 [Compound C17, 3-ethenyl-5-(2-chlorophenyl)-7-nitro-pyrazolo[3,4][1,4]benzodiazepine] | 0.01 to 1 µM | 10 to 990 nM | –
13 | Clc1ccc2c(c1)C(c1ccccc1)=Nc1c[nH]nc1N2 [Compound A6, 5-phenyl-7-chloro-pyrazolo[3,4][1,4]benzodiazepine] | – | 1000 to 9990 nM | –
14 | O=[N+]([O-])c1ccc2c(c1)C(c1ccccc1)=Nc1c(n[nH]c1-c1ncc[nH]1)N2 [Compound D34] | – | 1000 to 9990 nM | –
15 | O=[N+]([O-])c1ccc2c(c1)C(c1ccccc1Cl)=Nc1c(n[nH]c1-c1nccs1)N2 [Compound B13, 3-(1-thiazolyl)-5-(2-chlorophenyl)-7-nitro-pyrazolo[3,4][1,4]benzodiazepine] | – | 10 to 990 nM | –
16 | Cc1[nH]nc2c1N=C(c1ccccc1C(F)(F)F)c1cc([N+](=O)[O-])ccc1N2 [Compound D2] | – | 10 to 990 nM | 10 to 1000 nM
17 | N#Cc1[nH]nc2c1N=C(c1ccccc1Cl)c1cc([N+](=O)[O-])ccc1N2 [Compound C18, 5-(2-chlorophenyl)-7-nitro-pyrazolo[3,4][1,4]benzodiazepine-3-carbonitrile] | 10 to 30 µM | 10 to 990 nM | –

Row | Compound | IC50 [1] | IC50 [2] | IC50 [3]
18 | Clc1ccc2c(c1)C(c1ccccc1Cl)=Nc1c[nH]nc1N2 [Compound A4, 5-(2-chlorophenyl)-7-chloro-pyrazolo[3,4][1,4]benzodiazepine] | – | 10000 to 30000 nM | –
19 | Cc1ccc(-c2[nH]nc3c2N=C(c2ccccc2Cl)c2cc([N+](=O)[O-])ccc2N3)s1 [Compound D26] | – | 1000 to 9990 nM | –
20 | Fc1ccccc1C1=Nc2c[nH]nc2Nc2ccc(I)cc21 [Compound A19, 5-(2-fluorophenyl)-7-iodo-pyrazolo[3,4][1,4]benzodiazepine] | – | 1000 to 9990 nM | –
21 | CN(C)C(=O)c1[nH]nc2c1N=C(c1ccccc1Cl)c1cc([N+](=O)[O-])ccc1N2 [Compound C11, N,N-dimethyl-5-(2-chlorophenyl)-7-nitro-pyrazolo[3,4][1,4]benzodiazepine-3-carboxamide] | – | 1000 to 9990 nM | –
22 | CC(C)c1[nH]nc2c1N=C(c1ccccc1Cl)c1cc(N)ccc1N2 [Compound C6, 3-(1-methylethyl)-5-(2-chlorophenyl)-7-amino-pyrazolo[3,4][1,4]benzodiazepine] | 1.1 to 9.99 µM | 10 to 990 nM | –
23 | Cc1[nH]nc2c1N=C(c1ccccc1F)c1cc(Cl)ccc1N2 [Compound B32, 3-methyl-5-(2-fluorophenyl)-7-chloro-pyrazolo[3,4][1,4]benzodiazepine] | – | 10 to 990 nM | 1100 to 9990 nM
24 | CC(C)Cc1[nH]nc2c1N=C(c1ccccc1Cl)c1cc([N+](=O)[O-])ccc1N2 [Compound B11, 3-(2-methylpropyl)-5-(2-chlorophenyl)-7-nitro-pyrazolo[3,4][1,4]benzodiazepine] | – | 1000 to 9990 nM | –
25 | Cc1[nH]nc2c1N=C(c1ccccc1)c1cc(I)ccc1N2 [Compound B33, 3-methyl-5-phenyl-7-iodo-pyrazolo[3,4][1,4]benzodiazepine] | – | 1000 to 9990 nM | 10000 to 30000 nM
26 | CCC(C)c1[nH]nc2c1N=C(c1ccccc1Cl)c1cc([N+](=O)[O-])ccc1N2 (stereo not drawn) [Compound B17, 3-(1-methylpropyl)-5-(2-chlorophenyl)-7-nitro-pyrazolo[3,4][1,4]benzodiazepine] | – | 10 to 990 nM | –
27 | O=C(O)c1ccc2c(c1)C(c1ccccc1F)=Nc1c[nH]nc1N2 [Compound D22] | – | 1000 to 9990 nM | –
28 | COCc1[nH]nc2c1N=C(c1ccccc1Cl)c1cc([N+](=O)[O-])ccc1N2 [Compound C16, 3-methoxymethyl-5-(2-chlorophenyl)-7-nitro-pyrazolo[3,4][1,4]benzodiazepine] | 1.1 to 9.99 µM | 10 to 990 nM | –
29 | CCOC(=O)c1ccc2c(c1)C(c1ccccc1F)=Nc1c[nH]nc1N2 [Compound A20, 5-(2-fluorophenyl)-7-carboethoxy-pyrazolo[3,4][1,4]benzodiazepine] | – | 10 to 990 nM | –
30 | Fc1ccc2c(c1)C(c1ccccc1F)=Nc1c[nH]nc1N2 [Compound A11, 5-(2-fluorophenyl)-7-fluoro-pyrazolo[3,4][1,4]benzodiazepine] | – | 1000 to 9990 nM | 10000 to 30000 nM
31 | O=[N+]([O-])c1ccc2c(c1)C(c1ccccc1Cl)=Nc1c(n[nH]c1-c1ccccc1[N+](=O)[O-])N2 [Compound D39] | – | 10000 to 30000 nM | –
32 | Cc1[nH]nc2c1N=C(c1ccccc1)c1cc([N+](=O)[O-])ccc1N2 [Compound B27, 3-methyl-5-phenyl-7-nitro-pyrazolo[3,4][1,4]benzodiazepine] | – | 10 to 990 nM | 10 to 1000 nM
33 | CN(C)c1ccc(-c2[nH]nc3c2N=C(c2ccccc2Cl)c2cc([N+](=O)[O-])ccc2N3)cc1 [Compound D28] | – | 1000 to 9990 nM | –
34 | Cn1cccc1-c1[nH]nc2c1N=C(c1ccccc1Cl)c1cc([N+](=O)[O-])ccc1N2 [Compound D21] | – | 1000 to 9990 nM | –
